Measurements as given in US10471092B2, “Combination of hyaluronic acid and macrogol and pharmaceutical compositions containing it” (APHARM S.r.l., priority 2015, dated 2019).
Values joined by “and” are separate entries in the source; they are usually repeats but may differ in a detail not shown here. Identical values can stand only once.

Assays:
Format in all cases: in vivo, rat
rats [1] = assay: Intestinal transit, activated carbon feed (method of Schulz et al); conditions: for % of increase of intestinal transit with respect to: rats
Experimental: (§1) Intestinal transit, colon peristalsis and the amount of stool expelled have been evaluated on rats, after the administration of different individual doses of macrogol and sodium hyaluronate and of the combination of the invention.
On the other hand, such a parameter is increased with a dose-response behavior at the same doses by adding 0.3 ml of water administered per os. as well. In fact, the percentage increase values range from +10% at the 365 mg/kg p.o. dose of PEG to +23% at the 1560 mg/kg p.o. dose. […] Interesting results, under the same experimental conditions, have been obtained with the combination of PEG and sodium hyaluronate.
The experiment has been carried out following the method of Schulz et al (NS Arch. Pharmacol. 308:255-260, 1979) by using an activated carbon feed. 1.5 ml of a 20% (w/v) activated carbon suspension in a 5% (w/v) gum arabic solution has been administered by gavage to 24 hrs starved rats with free access to water. The rats have been sacrificed 10 min after receiving the activated carbon feed and their intestine has been completely removed. The transit in the small intestine has been calculated for each rat as the ratio between the traveled distance of the activated carbon feed and the total length of the intestine itself. Data are expressed as the percentage of transit in treated rats with respect to controls that have been considered as 100. Administration of the preparations occurred 30 min before sacrificing the animal.

rats [2] = assay: Colon propulsion, glass bead expulsion from distal colon (Raffa et al.; Lopez)
From the text: as §1
In this case all the values are significant with respect to the same treatment without water. […] Analogously to what observed in tab. […] The reduction of expulsion time results to be dose dependent, being in all the cases clearly evident and statistically significant with respect to the PEG+water dose. […] Propulsion of distal colon has been measured according to the method of Raffa et al. (Life Sci., 41: 2229-34, 1987) and of Lopez (Dig. Dis. Sci., 29:551, 1984). 30 min after the administration of the preparations, a 5 mm diameter glass bead has been inserted in the distal colon of each rat at 3 cm from the anus. The parameter taken as the reference was the time required by each rat to expel the bead. The lower the expulsion time, the highest the colon propulsion.

rats [3] = assay: Evaluation of the amount of stool (number of expelled pellets)
Experimental: as §1
In Table 3 it is possible to observe an increase in the number of expelled pellets from the rat after the PEG (365-1460 mg/kg p.o. without water and […] p.o. with water) and 20-50 mg/kg hyaluronate treatment in both conditions. […] A greater number of expelled pellets have been induced by the combination of 730 mg/kg p.o. PEG with 30 and 50 mg/kg p.o. sodium hyaluronate+water. […] By administering a dose of 487 mg/kg PEG+50 mg/kg p.o. sodium hyaluronate+water, the number of expelled pellets is equal to that one that can be observed with 730 mg/kg p.o. PEG and 30 mg/kg p.o. sodium hyaluronate. […] The stool expulsion has been monitored for each rat, starting from 1 h after the administration of the preparations (Martinez e Taché, Brain Res. 893: 29-35, 2001).

[4] = 20 mg/kg p.o. IALURONATE, no water
[5] = 30 mg/kg p.o. IALURONATE, no water
[6] = 50 mg/kg p.o. IALURONATE, no water

Substance: polyethylene glycol [PEG]
- % of increase of intestinal transit with respect to (rats [1]; 365 mg/kg p.o. PEG + Water 0.3 ml): 10% and 10.8%
- % of increase of intestinal transit with respect to (rats [1]; 365 mg/kg p.o. PEG, no water): 9.4%
- % of increase of intestinal transit with respect to (rats [1]; 487 mg/kg p.o. PEG + Water 0.3 ml): 11.5%
- % of increase of intestinal transit with respect to (rats [1]; 730 mg/kg p.o. PEG + Water 0.3 ml): 15.3%
- % of increase of intestinal transit with respect to (rats [1]; 730 mg/kg p.o. PEG, no water): 6.7%
- % of increase of intestinal transit with respect to (rats [1]; 973 mg/kg p.o. PEG + Water 0.3 ml): 18.6%
- % of increase of intestinal transit with respect to (rats [1]; 973 mg/kg p.o. PEG, no water): 8.8%
- % of increase of intestinal transit with respect to (rats [1]; 1460 mg/kg p.o. PEG, no water): 8.6%
- % of increase of intestinal transit with respect to (rats [1]; 1560 mg/kg p.o. PEG + Water 0.3 ml): 23% and 23.2%
- intestinal motility (rats [1]; PEG by gavage, 365 to 1460 mg/kg p.o., without water, rat): does not induce a significant increase
- Bead Expulsion time (rats [2]; 365 mg/kg p.o. PEG + Water 0.3 ml, rats): 153 ± 13 s
- Bead Expulsion time (rats [2]; 365 mg/kg p.o. PEG, no water, rats): 202 ± 11 s
- Bead Expulsion time (rats [2]; 487 mg/kg p.o. PEG + Water 0.3 ml, rats): 135 ± 19 s
- Bead Expulsion time (rats [2]; 730 mg/kg p.o. PEG + Water 0.3 ml, rats): 128 ± 16 s
- Bead Expulsion time (rats [2]; 730 mg/kg p.o. PEG, no water, rats): 181 ± 9 s
- Bead Expulsion time (rats [2]; 973 mg/kg p.o. PEG + Water 0.3 ml, rats): 116 ± 18 s
- Bead Expulsion time (rats [2]; 973 mg/kg p.o. PEG, no water, rats): 185 ± 12 s
- Bead Expulsion time (rats [2]; 1460 mg/kg p.o. PEG, no water, rats): 173 ± 15 s
- Bead Expulsion time (rats [2]; 1560 mg/kg p.o. PEG + Water 0.3 ml, rats): 93 ± 9 s
- colon propulsion activity (rats [2]; PEG 365 to 1560 mg/kg p.o. with simultaneous intake of water, vs same treatment without water, rats): statistically significant effect
- colon propulsion activity (rats [2]; PEG alone, without simultaneous administration of water by gavage, rats): does not modify
- No of pellets after 60 min (rats [3]; 365 mg/kg p.o. PEG + Water 2 ml): 0
- No of pellets after 60 min (rats [3]; 365 mg/kg p.o. PEG, no water): 0
- No of pellets after 60 min (rats [3]; 487 mg/kg p.o. PEG + Water 2 ml): 2
- No of pellets after 60 min (rats [3]; 730 mg/kg p.o. PEG + Water 2 ml): 3
- No of pellets after 60 min (rats [3]; 730 mg/kg p.o. PEG, no water): 0
- No of pellets after 60 min (rats [3]; 973 mg/kg p.o. PEG + Water 2 ml): 3
- No of pellets after 60 min (rats [3]; 973 mg/kg p.o. PEG, no water): 1
- No of pellets after 60 min (rats [3]; 1460 mg/kg p.o. PEG, no water): 1
- No of pellets after 60 min (rats [3]; 1560 mg/kg p.o. PEG + Water 2 ml): 3

Substance: sodium hyaluronate [IALURONATE]
- % of increase of intestinal transit with respect to (rats [1]; 20 mg/kg p.o. IALURONATE + Water 0.3 ml): 17.0%
- % of increase of intestinal transit with respect to (rats [1]; [4]): 0%
- % of increase of intestinal transit with respect to (rats [1]; 30 mg/kg p.o. IALURONATE + Water 0.3 ml): 19.6%
- % of increase of intestinal transit with respect to (rats [1]; [5]): 3.8%
- % of increase of intestinal transit with respect to (rats [1]; 50 mg/kg p.o. IALURONATE + Water 0.3 ml): 20.3%
- % of increase of intestinal transit with respect to (rats [1]; [6]): 4.2%
- intestinal transit (rats [1]; sodium hyaluronate 20-50 mg/kg p.o., without simultaneous intake of water, rat): does not induce an increase
- Bead Expulsion time (rats [2]; 20 mg/kg p.o. IALURONATE + Water 0.3 ml, rats): 129 ± 14 s
- Bead Expulsion time (rats [2]; 20 mg/kg p.o. IALURONATE, no water, rats): 195 ± 12 s
- Bead Expulsion time (rats [2]; 30 mg/kg p.o. IALURONATE + Water 0.3 ml, rats): 120 ± 11 s
- Bead Expulsion time (rats [2]; 30 mg/kg p.o. IALURONATE, no water, rats): 191 ± 16 s
- Bead Expulsion time (rats [2]; 50 mg/kg p.o. IALURONATE + Water 0.3 ml, rats): 114 ± 15 s
- Bead Expulsion time (rats [2]; 50 mg/kg p.o. IALURONATE, no water, rats): 188 ± 21 s
- expulsion time of the bead (rats [2]; sodium hyaluronate 20-50 mg/kg p.o. by gavage, no water, rats): does not modify
- expulsion time of the bead (rats [2]; sodium hyaluronate 20-50 mg/kg p.o., rat intakes water (0.2 ml)): the effect is very evident
- No of pellets after 60 min (rats [3]; 20 mg/kg p.o. IALURONATE + Water 2 ml): 2
- No of pellets after 60 min (rats [3]; [4]): 0
- No of pellets after 60 min (rats [3]; 30 mg/kg p.o. IALURONATE + Water 2 ml): 2
- No of pellets after 60 min (rats [3]; [5]): 1
- No of pellets after 60 min (rats [3]; 50 mg/kg p.o. IALURONATE + Water 2 ml): 3
- No of pellets after 60 min (rats [3]; [6]): 1
